Experimental data: PubChem BioAssay (NCI)
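All cell lines were grown in 96-well plates and treated with compound for 48 hours. The concentration for full growth arrest is given as TGI.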

Key:
Assay in all cases: growth of human tumour cells (NCI), 48 h
MCF7 breast = tested on: MCF7 breast
MDA-N = tested on: MDA-N
SF-268 CNS = tested on: SF-268 CNS
CCRF-CEM leukemia = tested on: CCRF-CEM leukemia
KM12 colon = tested on: KM12 colon
HS 578T breast = tested on: HS 578T breast
SW-620 colon = tested on: SW-620 colon
A549 NSCLC = tested on: A549 NSCLC
MDA-MB-231 breast = tested on: MDA-MB-231 breast
COLO 205 colon = tested on: COLO 205 colon

SMILES	TGI (MCF7 breast) [µM]	TGI (MDA-N) [µM]	TGI (SF-268 CNS) [µM]	TGI (CCRF-CEM leukemia) [µM]	TGI (KM12 colon) [µM]	TGI (HS 578T breast) [µM]	TGI (SW-620 colon) [µM]	TGI (A549 NSCLC) [µM]	TGI (MDA-MB-231 breast) [µM]	TGI (COLO 205 colon) [µM]
COc1ccc(C(=O)c2ccc(-n3cc(/C=C/[N+](=O)[O-])c4ccccc43)cc2)cc1	> 34.2	> 58.9	> 54.1	> 20.2	55.2	19.9	> 100	> 100	43.9	> 63.5
Cn1c(=O)sc2cc(C(=S)N3CCOCC3)ccc21	> 100	> 100	> 100	> 100	> 100	> 100	> 100	> 100	> 100	> 100
CCCCCCCCCCCCCCCCOCC(Cl)COP(=O)(O)OP(=O)(O)OCC1OC(n2cnc3c(N)ncnc32)C(O)C1O (stereo not given)	> 100	> 100	> 100	> 100	> 100	> 100	> 100	> 100	> 100	> 100
CCCCCCOP(=O)(OCCCCCC)OC(C(=O)OC)C(F)(F)F (stereo not given)	> 100	> 100	> 100	> 100	> 100	> 100	> 100	> 100	> 100	> 100
NC(=S)N/N=C\CC(O)(C(F)(F)F)C(F)(F)F	> 10	> 10	> 10	> 10	> 10	> 10	> 10	> 10	> 10	> 10
CC(C)(C)OC(=O)N1CCc2c(n(C/C=C/c3ccccc3)[nH]c2=O)C1	> 100	> 100	> 100	> 100	> 100	> 100	> 100	> 100	> 100	> 100
CC(C)(C)c1c(C(C)(C)C)c(=O)c1=O	> 100	> 100	> 100	> 100	> 100	> 100	> 100	> 100	> 100	> 100
CC(=O)CC1(C)OC(N)=C(C#N)C1(C#N)C#N (stereo not given)	> 100	> 100	> 100	> 100	> 100	> 100	> 100	> 100	> 100	> 100
C=C1CC(Cn2cc(Br)c(=O)[nH]c2=O)(c2ccc(-c3ccccc3)cc2)OC1=O (stereo not given)	1.75	2.35	4.64	0.712	3.68	> 20.5	1.58	21.6	9	2.23
CC(C)C1CC(CO)(CNc2cc(Cl)nc(N)n2)C1 (stereo not given)	> 100	> 100	> 100	> 100	> 100	> 100	> 100	> 100	> 100	> 100
O=C1CSC2(CC(/C=C/c3ccccc3Br)=NN2c2cccc(S(=O)(=O)O)c2)N1c1nc2ccccc2s1 (stereo not given)	> 100	> 100	> 100	> 100	> 100	> 100	> 100	> 100	> 100	> 100
NS(=O)(=O)c1cc(S(N)(=O)=O)c(NC(=O)N(c2ccccc2)c2ccccc2)c(Cl)c1Cl	> 100	88.5	> 100	25.7	57.1	44.9	> 100	> 100	> 100	42.2
CCCNC(=O)CCC(C)[C@H]1CCC2C3C(C[C@H](OC(C)=O)[C@@]21C)[C@@]1(C)CCC2(C[C@H]1C[C@H]3OC(C)=O)OOC1(CCCCC1)OO2 (stereo not given in full)	> 56.1	16.6	10.4	4.95	3.56	> 53	> 75.5	2.82	5.31	3.64
NC(=O)C1=CC2C3C=CC2(O)C(=O)OC3O1 (stereo not given)	18.5	6.97	20.9	9.8	11.4	5.57	28.6	> 100	32	16.1
COC(=O)c1c(OC)cc2cc3c(c(O)c2c1C)C(=O)C1(O)C(=O)C=C(OC)C(OC(=O)CC(C)N)=C1C3=O (stereo not given)	67.3	> 100	> 100	49.5	42.7	96.6	> 100	> 100	43.4	> 100
CC/C(Cl)=N\OC(=O)Nc1ccc(F)cc1F	44.9	12.6	> 57.7	5.11	41.3	> 69.5	2.95	39.8	36.7	3.6
CCOC(=O)CCCn1cc(C(=O)OC)nn1	> 100	> 100	> 100	> 100	> 100	> 100	> 100	> 100	> 100	> 100
O=c1oc2ccc(Cl)cc2cc1-c1cn2ccsc2n1	65.4	> 100	> 100	78.3	> 100	> 100	> 100	> 100	> 100	93.6
O=C1OI(C#Cc2ccccc2)c2ccccc21	14.9	30.6	9.96	4.01	9.31	26.6	5.14	39.7	> 55.3	9.11
CC12CC(C/C1=N/O)C(C)(C)C2 (stereo not given)	> 100	> 100	> 100	> 100	> 100	> 100	> 100	> 100	> 100	> 100
O=S1(=O)CCN(c2ccccc2CC(c2c[nH]c3ccccc23)c2c[nH]c3ccccc23)CC1	> 100	18.2	62.2	11.1	13.5	42.7	21.1	> 78.2	25.1	8.23
CC1=C2NCN(C)N=C2C(C#N)(C#N)C1(C#N)C#N	> 70.7	30	> 76.6	7.86	> 100	> 96.3	42.2	> 100	36.2	19.9
O=P(O)(O)CN1CCNCCN(CP(=O)(O)O)CCNCC1	> 100	> 100	> 100	> 100	> 100	> 100	> 100	> 100	> 100	> 100
CCN(CC)CCN(C)CCc1ccc(Br)cc1	> 100	> 100	> 100	> 100	> 100	> 100	> 100	> 100	> 100	39.5
COC(=O)c1ccc(/C=C2\CCc3ccccc3C2=O)cc1	> 100	> 100	> 100	> 100	> 100	> 100	> 100	> 100	> 100	> 100
O=C(c1ccco1)C1CC(c2ccc3ccccc3c2O)=NN1c1ccc([N+](=O)[O-])cc1[N+](=O)[O-] (stereo not given)	> 100	> 100	> 100	10.6	26.2	66.6	> 100	> 100	68.7	32
CCOC(=O)/C(C#N)=C/N(CC)/N=C/c1ccccc1	> 100	> 100	> 100	> 100	> 100	> 100	> 100	> 100	> 100	> 100
O=[N+]([O-])c1ccc(NS(=O)(=O)C(F)(F)F)cc1	> 100	> 100	> 100	> 100	> 100	> 100	> 100	> 100	> 100	> 100
